Data reported in ChEMBL document CHEMBL3301361, “Experimental in vitro DMPK and physicochemical data on a set of publicly disclosed compounds”.

experiment: physchem; settings: octan-1-ol/water, pH 7.4

Structure (SMILES) | logD
CCN(CC)C(=O)c1ccc(C(=C2CCNCC2)c2ccccc2OC)cc1 | 1
COC(=O)C1C(OC(=O)c2ccccc2)CC2CCC1N2C (stereo unspecified) | 1.06
CCC1(c2cccc(O)c2)CCCCN(C)C1 (stereo unspecified) [MEPTAZINOL] | 0.8
COC(=O)c1ccc2c(c1)N(CCN1CCC(NCc3ccc4c(n3)NC(=O)CO4)CC1)C(=O)CO2 | 0.83
CCN(CC)C(=O)N[C@H]1C[C@@H]2c3cccc4[nH]cc(c34)C[C@H]2N(C)C1 [TERGURIDE] | 2.73
C[C@@H]1C2CCCC1(c1cccc(O)c1)CCN2C (stereo partly specified) | 0.52
CN1CCC[C@H]1c1ccccn1 | 0.44
Cc1cc(C(N)=O)ccc1O[C@H]1C[C@H]2CC[C@@H](C1)N2Cc1ccccc1 | 2.23
CN1CCN(C(=O)c2ccc(C(=C3CCN(Cc4cscn4)CC3)c3cccc4cccnc34)cc2)CC1 | 1.98
CN(C)C(=O)c1ccc(C(=C2CCN(Cc3cscn3)CC2)c2cccc3cccnc23)cc1 | 2.3
CC(C)[C@@H](CN1CC[C@@](C)(c2cccc(O)c2)[C@@H](C)C1)NC(=O)[C@H]1Cc2ccc(O)cc2CN1 [JDTIC] | 2.39
CCn1cc(C(=O)O)c(=O)c2ccc(C)nc21 [NALIDIXIC ACID] | -0.1
CCC1(c2ccc(N)cc2)CCC(=O)NC1=O (stereo unspecified) [AMINOGLUTETHIMIDE] | 0.6
CC(C)[C@H](N)C(=O)OCCOCn1cnc2c(=O)[nH]c(N)nc21 [VALACYCLOVIR] | -1.3

same assay, conditions: octan-1-ol/water, pH 7.4, LogD7.4

Structure (SMILES) | logD
Cc1cccc(C(=O)N2CCC(C(=O)c3ccc(F)cc3)CC2)c1 | 3.4
COC(=O)CCC(=O)Nc1ccc2c(c1)-c1ccccc1C(=O)C2=O | 2.72
CSc1nc2cc(Cl)ccc2[nH]1 | 3.22
CNC(=O)c1ccc(Nc2ncc(F)c(-c3cnc(C)n3C(C)C)n2)cc1 | 3
Cc1ncc(-c2ccnc(Nc3ccc(C(N)=O)cc3)n2)n1C(C)C | 2.39
Oc1ccc(C2CNCCc3c2cc(O)c(O)c3Cl)cc1 (stereo unspecified) [FENOLDOPAM] | 0.87
CC(C)C(NC(=O)Cn1c(C2CCCCC2)ncc(NC(=O)OCc2ccccc2)c1=O)C(=O)C(F)(F)F (stereo unspecified) | 2.87
CC(=O)[C@H]1CC[C@H]2[C@@H]3C[C@H](C)C4=CC(=O)CC[C@]4(C)[C@H]3[C@@H](O)C[C@]12C [MEDRYSONE] | 3.25
O=C1CCCCCN1 [CAPROLACTAM] | -0.08
CCOc1ccccc1-c1ccc(-c2nc3ccc(F)cc3c(C(=O)O)c2C)cc1 | 1.18
Oc1nc(S)nc2nc[nH]c12 | -1.48
COC(=O)[C@H](Cc1ccc([N+](=O)[O-])cc1)NC(=O)c1cccc2ccccc12 | 3.58
CCC(c1nc2ccn(C)c2c(=O)n1Cc1ccccc1)N(CCCN)C(=O)c1ccc(C)cc1 (stereo unspecified) | 1.8
CC(O)(C(=O)Nc1ccc(S(=O)(=O)c2ccc(F)cc2)cc1)C(F)(F)F (stereo unspecified) | 3.12
CN1CCN(CCCOc2ccc(-c3cc(-c4ccc(F)cc4)no3)cc2)CC1 | 3.81
CCOc1cc2nnc(C(N)=O)c(Nc3cccc(Cl)c3F)c2cc1N1CCN(C)CC1 | 1.99
C[C@H](N)C(=O)N[C@H](/C=C/S(=O)(=O)c1ccccc1)CCc1ccccc1 | 1.66
O=S(=O)(Nc1cc(F)ccc1F)c1ccc(Cl)cc1 | 2.9
CSc1ncccc1C(=O)NCCc1ccc(Cl)cc1 | 3.31
COc1cc(N2CCN(CCS(C)(=O)=O)CC2)ccc1Nc1ncc(Cl)c(-c2cnc3ccccn23)n1 | 3.1
Nc1nc(CCc2cccc(Br)c2)cc(=O)[nH]1 | 2.52
CC(=O)Nc1nc(N)n(-c2ccccc2)n1 | -0.2
Cc1ccc(-c2ncc(C)n2C)cc1NC(=O)c1ccc(OCc2ccccn2)cc1 | 2.67

Structure (SMILES) | logD
Nc1nccc(-c2cccs2)n1 | 1.75
COc1ccc(S(=O)(=O)NCC(c2ccccc2)N2CCCCCC2)cc1 (stereo unspecified) | 3.13
CC(C)Cn1c(=O)n(C)c(=O)c2c(C(=O)N3C[C@H](O)CO3)c(Cc3ccccc3C(F)(F)F)sc21 | 3.15
OC(CCN1CCCCC1)(c1ccccc1)C1CC2C=CC1C2 (stereo unspecified) [BIPERIDEN] | 2.49
C=CCNC(=O)c1cc([N+](=O)[O-])cc2c(=O)[nH]c(Nc3ccc(Cl)c(Cl)c3)nc12 | 2.7
O=C(c1ccccc1)c1ccc2n1CCC2C(=O)O (stereo unspecified) [KETOROLAC] | -0.93
Cc1cc(Nc2ncc(F)c(-c3cnc(C)n3C(C)C)n2)ccc1C(=O)N(C)C | 2.86
Nc1ncc(-c2ccc(S(=O)(=O)N3CCOCC3)cc2)nc1C(=O)Nc1cccnc1 | 2.83
CCCN1CCN(c2ccc(C(=O)NC3(C(=O)NCC#N)CCCCC3)cc2)CC1 [BALICATIB] | 1.33
CCCCCc1cc(=O)[nH]c(N)n1 | 1.62
Nc1[nH]nc2cccc(Cl)c12 | 1.92
COc1cc2ncc(C(N)=O)c(Nc3ccccc3Cl)c2cc1OC | 2.89
CC(=O)Nc1ccc2[nH]cc(-c3cc(NC4CC4)n4ncc(C#N)c4n3)c2c1 | 2.65
CC(C)N1CCN[C@@H](CN2CCN(C(=O)Nc3ccc(Cl)c(Cl)c3)CC2)C1 | 1.92
N#Cc1cccc(C(=O)Nc2cc(-c3ccccc3)nn2-c2ccccc2)c1 | 3.82
O=C(O)CSc1c[nH]c2ccccc12 | -1.31
CC(=O)NC[C@H]1CN(c2ccc(N3Cc4ccncc4C3)c(F)c2)C(=O)O1 | 3.02
COc1ccc(-c2coc3cc(O)ccc3c2=O)cc1 [FORMONONETIN] | 3.05
O=C1C(=O)c2cccnc2-c2ccccc21 | 1.88
COc1cccc(Nc2ncnc3cc(OC)c(OC)cc23)c1 | 3.1
Cc1cc(=O)[nH]c2ccccc12 | 1.9
COc1ccc(-c2ccc3c(N4CCOC[C@@H]4C)nc(N4CCOC[C@@H]4C)nc3n2)cc1C(N)=O | 2.82
Cc1cccc(C#Cc2ccccc2)n1 | 3.6

Structure (SMILES) | logD
CC(C)Cn1c(=O)n(C)c(=O)c2c(SCCCO)c(Cc3ccccc3C(F)(F)F)sc21 | 4.05
CCCSc1nc(N2CCCCC2C(=O)O)ccc1C(=O)NC1CCCCC1 (stereo unspecified) | 1.36
CC(C)c1ccccc1Nc1nnc(SCc2cccs2)[nH]1 | 4.21
Oc1cc(-c2ccccc2)nc2ccccc12 | 2.54
COc1ccccc1CN[C@H]1CCCN[C@H]1c1ccccc1 [CP-99994] | 1.5
Nc1nc(SCc2ccccc2)nc2c1ncn2[C@@H]1O[C@H](CO)[C@@H](O)[C@H]1O | 1.24
O=S(=O)(Nc1nccs1)c1ccc(O)cc1 | 0.36
CC(=O)[C@@]1(O)CC[C@H]2[C@@H]3C[C@H](C)C4=CC(=O)C=C[C@]4(C)[C@@]3(F)[C@@H](O)C[C@@]21C [FLUOROMETHOLONE] | 2.65
N=C(N)Nc1ccc(C(=O)Oc2ccc(Cl)cc2)cc1 | 0.7
CN(C)c1ccnc2sc3c(=O)n(-c4ccccc4)cnc3c12 | 2.34
CCC(c1nc2ccsc2c(=O)n1Cc1ccccc1)N(CCCN)C(=O)c1ccc(OC)cc1 (stereo unspecified) | 1.39
FC(F)c1nc2ccccc2[nH]1 | 2.02
Clc1ccccc1-c1c[nH]nn1 | 2.68
COc1ccc(Cl)c(Nc2ncnc3cc(OC)cc(OC4CCN(C)CC4)c23)c1 | 3.6
Cc1cc(NC(=O)Nc2ccc(Cl)cc2)n(C)n1 | 2.96
c1ccc2nc(C3=NCCN3)ccc2c1 | 0.6
Cc1occc(=O)c1OCc1ccc(F)cc1 | 1.91
Nc1nc2cc3c(cc2s1)CCN(Cc1cccc(F)c1)CC3 | 3.3
c1ccc(C2Cc3ccccc3CN2)cc1 (stereo unspecified) | 1.9
COc1ccc(-c2cc(O)c3cc(Cl)ccc3n2)cc1 | 2.7
COC(=O)COc1ccc(OCCNCC(O)COc2ccccc2)cc1 (stereo unspecified) | 1.54
